# From ChEMBL document CHEMBL5104192, “Late-Stage Functionalization with Cysteine Staples Generates Potent and Selective Melanocortin Receptor-1 Agonists” (J Med Chem, 2022)
# *1 amine or outer side, *2 acyl side, *3 side chain or, on linkers, in order; H or OH if unused. Where a SMILES comes first, the peptide text is derived from it. Bridges are numbered along the chain shown (N, C = ends). [ ]: non-standard residue; d: D form. C6F4(1,4-diyl) = Fc1c(F)c([*:2])c(F)c(F)c1[*:1]; oXylylene = c1ccc(C[*:2])c(C[*:1])c1; NMeR = CN[C@@H](CCCNC(=N)N)C(=O)O; CH2COCH2 = O=C(C[*:1])C[*:2]; Nle = CCCC[C@H](N)C(=O)O; X7 = C(C[*:1])C[*:2]
# What was measured:
# [1] = species on record: Homo sapiens; assay: Selectivity ratio of EC50 for human MC3R to EC50 for human MC1R
# [2] = molecular target: T1, Melanocyte-stimulating hormone receptor (Homo sapiens, UniProt Q01726); assay: Displacement of [125I]-NDP-alpha-MSH from human MC1R expressed in HEK2936E cell membrane measured after 16 to 23 hrs by 1450 microbeta trilux scintillation proximity assay; format: cell membranes
# T1 sequence (Q01726 whole entry): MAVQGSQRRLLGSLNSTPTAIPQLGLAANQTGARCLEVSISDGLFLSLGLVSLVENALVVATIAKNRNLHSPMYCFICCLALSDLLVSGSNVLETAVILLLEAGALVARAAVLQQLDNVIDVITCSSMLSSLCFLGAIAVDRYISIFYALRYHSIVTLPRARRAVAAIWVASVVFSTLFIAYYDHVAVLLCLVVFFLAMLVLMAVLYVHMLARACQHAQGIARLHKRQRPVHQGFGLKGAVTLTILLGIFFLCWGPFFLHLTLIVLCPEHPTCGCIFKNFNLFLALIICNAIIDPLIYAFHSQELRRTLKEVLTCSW
# [3] = molecular target: T2, Melanocortin receptor 4 (Homo sapiens, UniProt P32245); assay: Agonist activity at human MC4R expressed in HEK2936E cells assessed as cAMP production in presence of IBMX by time resolved fluorescence assay; format: functional, cell-based
# T2 sequence (P32245 whole entry): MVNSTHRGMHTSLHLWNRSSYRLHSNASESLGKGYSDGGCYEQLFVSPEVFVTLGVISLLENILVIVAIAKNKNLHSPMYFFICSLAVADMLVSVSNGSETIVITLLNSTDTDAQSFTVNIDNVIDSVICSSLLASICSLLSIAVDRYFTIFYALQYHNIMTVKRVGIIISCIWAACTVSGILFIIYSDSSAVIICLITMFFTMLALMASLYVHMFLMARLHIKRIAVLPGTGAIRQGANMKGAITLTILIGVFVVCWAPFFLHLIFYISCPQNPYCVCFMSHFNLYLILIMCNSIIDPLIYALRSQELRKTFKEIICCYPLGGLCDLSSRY
# [4] = molecular target: T3, Melanocortin receptor 3 (Homo sapiens, UniProt P41968); assay: Agonist activity at human MC3R expressed in HEK2936E cells assessed as cAMP production in presence of IBMX by time resolved fluorescence assay; format: functional, cell-based
# T3 sequence (P41968 whole entry): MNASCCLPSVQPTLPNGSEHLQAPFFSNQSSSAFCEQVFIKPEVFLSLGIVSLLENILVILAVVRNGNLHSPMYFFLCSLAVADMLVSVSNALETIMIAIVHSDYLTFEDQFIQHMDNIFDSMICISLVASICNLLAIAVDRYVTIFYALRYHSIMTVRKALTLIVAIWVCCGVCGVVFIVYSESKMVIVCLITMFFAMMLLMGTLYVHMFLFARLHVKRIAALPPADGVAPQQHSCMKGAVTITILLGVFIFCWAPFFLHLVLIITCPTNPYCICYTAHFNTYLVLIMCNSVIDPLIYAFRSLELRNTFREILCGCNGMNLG
# [5] = species on record: Homo sapiens; assay: Selectivity ratio of Ki for human MC4R to Ki for human MC1R
# [6] = species on record: Homo sapiens; assay: Selectivity ratio of Ki for human MC3R to Ki for human MC1R
# [7] = molecular target: T3, Melanocortin receptor 3; assay: Displacement of [125I]-NDP-alpha-MSH from human MC3R expressed in HEK2936E cell membrane measured after 16 to 23 hrs by 1450 microbeta trilux scintillation proximity assay; format: cell membranes
# [8] = molecular target: T1, Melanocyte-stimulating hormone receptor; assay: Agonist activity at human MC1R expressed in HEK2936E cells assessed as cAMP production in presence of IBMX by time resolved fluorescence assay; format: functional, cell-based; conditions: read-out: pEC50 (converted)
# [9] = molecular target: T2, Melanocortin receptor 4; assay: Displacement of [125I]-NDP-alpha-MSH from human MC4R expressed in HEK2936E cell membrane measured after 16 to 23 hrs by 1450 microbeta trilux scintillation proximity assay; format: cell membranes
# [10] = species on record: Homo sapiens; assay: Selectivity ratio of EC50 for human MC4R to EC50 for human MC1R
SMILES,Ratio EC50 [1],Ki [2],EC50 [3],EC50 [4],Ratio Ki [5],Ratio Ki [6],Ki [7],EC50 [8],Ki [9],Ratio EC50 [10]
CCCC[C@@H]1NC(=O)[C@@H]2CSCCCSC[C@H](NC(=O)[C@H](CCCNC(=N)N)NC(=O)[C@H](CC(=O)O)NC(=O)[C@H](Cc3c[nH]c4ccccc34)NC(=O)[C@H](CCCNC(=N)N)NC(=O)[C@H](Cc3ccccc3)NC(=O)[C@H](Cc3cnc[nH]3)NC(=O)CNC1=O)C(=O)N[C@@H](Cc1cnc[nH]1)C(=O)N[C@@H](Cc1ccccc1)C(=O)N[C@@H](CCCNC(=N)N)C(=O)N[C@@H](Cc1c[nH]c3ccccc13)C(=O)N[C@@H](CCCNC(=N)N)C(=O)N2 (cyclo(CHFRWRC[Nle]GHFRWDR); linker 1-7 via X7),2,1.32 nM,2.88 nM,0.302 nM,34,15,19.5 nM,0.141 nM,44.7 nM,20
CCCC[C@@H]1NC(=O)[C@@H]2CSCC(=O)CSC[C@H](NC(=O)[C@H](CCCNC(=N)N)NC(=O)[C@H](CC(=O)O)NC(=O)[C@H](Cc3c[nH]c4ccccc34)NC(=O)[C@H](CCCNC(=N)N)NC(=O)[C@H](Cc3ccccc3)NC(=O)[C@H](Cc3cnc[nH]3)NC(=O)CNC1=O)C(=O)N[C@@H](Cc1cnc[nH]1)C(=O)N[C@@H](Cc1ccccc1)C(=O)N[C@@H](CCCNC(=N)N)C(=O)N[C@@H](Cc1c[nH]c3ccccc13)C(=O)N[C@@H](CCCNC(=N)N)C(=O)N2 (cyclo(CHFRWRC[Nle]GHFRWDR); linker 1-7 via CH2COCH2),1,2.09 nM,7.24 nM,0.692 nM,21,11,23.4 nM,0.55 nM,43.7 nM,13
CC[C@H](C)[C@@H]1NC(=O)[C@@H]2CCCN2C(=O)[C@H](Cc2c[nH]c3ccccc23)NC(=O)[C@H](CCCNC(=N)N)N(C)C(=O)[C@H](Cc2ccccc2)NC(=O)[C@H](Cc2cnc[nH]2)NC(=O)[C@H]([C@@H](C)O)NC(=O)[C@@H](NC(C)=O)CSSC[C@@H](C(N)=O)NC1=O (Ac-CTHF[NMeR]WPIC-NH2; disulfide 1-9),5,195 nM,60.3 nM,39.8 nM,2,20,3980 nM,8.71 nM,347 nM,7
"CCCC[C@@H]1NC(=O)[C@@H]2CSc3c(F)c(F)c(c(F)c3F)SC[C@H](NC(=O)[C@H](CCCNC(=N)N)NC(=O)[C@H](CC(=O)O)NC(=O)[C@H](Cc3c[nH]c4ccccc34)NC(=O)[C@H](CCCNC(=N)N)NC(=O)[C@H](Cc3ccccc3)NC(=O)[C@H](Cc3cnc[nH]3)NC(=O)CNC1=O)C(=O)N[C@@H](Cc1cnc[nH]1)C(=O)N[C@@H](Cc1ccccc1)C(=O)N[C@@H](CCCNC(=N)N)C(=O)N[C@@H](Cc1c[nH]c3ccccc13)C(=O)N[C@@H](CCCNC(=N)N)C(=O)N2 (cyclo(CHFRWRC[Nle]GHFRWDR); linker 1-7 via C6F4(1,4-diyl))",2,0.794 nM,3.55 nM,0.275 nM,58,15,11.7 nM,0.123 nM,45.7 nM,29
CC[C@H](C)[C@@H]1NC(=O)[C@@H]2CCCN2C(=O)[C@H](Cc2c[nH]c3ccccc23)NC(=O)[C@H](CCCNC(=N)N)N(C)C(=O)[C@H](Cc2ccccc2)NC(=O)[C@H](Cc2cnc[nH]2)NC(=O)[C@H]([C@@H](C)O)NC(=O)[C@@H](NC(C)=O)CSCc2ccccc2CSC[C@@H](C(N)=O)NC1=O (Ac-CTHF[NMeR]WPIC-NH2; linker 1-9 via oXylylene),58,64.6 nM,398 nM,295 nM,33,191,12300 nM,1.86 nM,2140 nM,212
